According to US20090312396A1, “METHODS FOR CANCER TREATMENT USING TAK1 INHIBITORS” (AstraZeneca AB, priority 2006, published 2009):
Like-named read-outs stand apart in the source and are kept apart here.

How the values were obtained:
Test in all cases: AlamarBlue proliferation assay, GI50
Assay type in all cases: cell-based
ARH77 = conditions: Homo sapiens, ARH-77, 72 hours
Experimental: (§1) The TAK1 inhibitors are known in the art (see for example, WO 2003010158, WO 2003010163 and WO2004063186 the disclosures of which are incorporated by reference herein). All cell lines were plated at 10,000 cells/well in flat-bottomed 96 well plates and dosed with test compounds in triplicate over a 10 point dosing range from 0 to 30 μmolesL^−1. All cell lines were incubated with test compounds for a total of 72 hours. Background levels were determined for a control (undosed) plate within 2 hours of dosing test compounds. Following the dosing period, the extent of proliferation was measured by adding 1/10 (vol/vol) AlamarBlue reagent to every well and incubating the plates for a further 4 hours. The reaction was stopped by the addition of SDS to a final concentration of 0.1%. Fluorescence was measured at 545 nm (excitation) and 600 nm (emission). Growth inhibition 50 (GI50) values were determined for each test compound across the panel.

DOHH2 = conditions: Homo sapiens, DOHH-2, 72 hours, Table 4, read-out: GI50 DOHH2 FL
Experimental: as §1

HEL92.1.7 = conditions: Homo sapiens, HEL 92.1.7, 72 hours, Table 4, read-out: GI50 HEL92.1.7 Erythroleukemia
Experimental: as §1

Jurkat = conditions: Homo sapiens, 72 hours, Table 4, read-out: GI50 Jurkat T-ALL
Experimental: as §1

KG1a = conditions: Homo sapiens, KG-1a, 72 hours, Table 4, read-out: GI50 KG1a AML
Experimental: as §1

Karpas231 = conditions: Homo sapiens, 72 hours, Table 4, read-out: GI50 Karpas231 B-ALL
Experimental: as §1

MEC1 = conditions: Homo sapiens, 72 hours
Experimental: as §1

OCI-LY19 = conditions: Homo sapiens, 72 hours, Table 4, read-out: GI50 OCI-LY19 DLBCL
Experimental: as §1

SUDHL4 = conditions: Homo sapiens, SU-DHL-4, 72 hours, Table 4, read-out: GI50 SUDHL4 DLBCL
Experimental: as §1

WSU-NHL = conditions: Homo sapiens, 72 hours, Table 4, read-out: GI50 WSU-NHL B-NHL
Experimental: as §1

COC(C)(C)CNCc1ccc(-c2cc(NC(N)=O)c(C(N)=O)s2)cc1 [Compound 4, 3-[(aminocarbonyl)amino]-5-(4-{[(2-methoxy-2-methylpropyl)amino]methyl}phenyl)thiophene-2-carboxamide]
GI50 (ARH77; Table 4, read-out: GI50 ARH77 Plasma cell leukemia): 3.72 µM
GI50 (ARH77; Table 5, read-out: GI50 ARH-77 plasma cell leukemia): 3.72 µM
GI50 (DOHH2): 0.101 µM
GI50 (HEL92.1.7): 1.47 µM
GI50 (Jurkat): 10.1 µM
GI50 (KG1a): 1.09 µM
GI50 (Karpas231): 0.06 µM
GI50 (MEC1; Table 4, read-out: GI50 MEC1 B-CLL): 2.99 µM
GI50 (MEC1; Table 6, read-out: GI50 MEC-1 B-CLL): 2.99 µM
GI50 (OCI-LY19): 0.054 µM
GI50 (SUDHL4): 3.08 µM
GI50 (WSU-NHL): 0.27 µM
